Results taken from PMC7887755, “Structure–Activity Relationships of Pyrazolo[1,5-a]pyrimidin-7(4H)-ones as Antitubercular Agents” (ACS Infectious Diseases, 2021).
≈ marks a conversion by molar mass, not a printed value. Where “and” joins values, the source holds several entries; their conditions need not be identical. Equal values may be shown once.

Assays:
[1] = test system: P19^R strain rv1751 L250Q; format: cell-based, Mycobacterium tuberculosis
[2] = test system: P19^R strain rv1751 V96L; format: cell-based, Mycobacterium tuberculosis
[3] = test system: P19^R strain rv1751 P152S; format: cell-based, Mycobacterium tuberculosis
[4] = test system: Mtb strain H37Rv cydC::aph; format: cell-based, Mycobacterium tuberculosis
[5] = test system: P19^R strain rv1751 L399W; format: cell-based, Mycobacterium tuberculosis
[6] = test system: P19^R strain rv1751 H97Y/N; format: cell-based, Mycobacterium tuberculosis
[7] = test system: P19^R strain rv1751 A434T; format: cell-based, Mycobacterium tuberculosis
[8] = test system: Mtb H37Rv

SMILES	MIC L250Q [1]	MIC V96L [2]	MIC P152S [3]	MIC CydKO [4]	MIC L399W [5]	MIC H97Y/N [6]	MIC A434T [7]	fold change L250Q [1]	fold change V96L [2]	fold change P152S [3]	frequency of resistant clones [8]	fold change L399W [5]	fold change H97Y/N [6]	fold change A434T [7]
NNC(=O)c1ccncc1 [INH, isoniazid, reference compound]	0.04 µM (≈ 0.00549 µg/mL)	0.04 µM (≈ 0.00549 µg/mL)	0.04 µM (≈ 0.00549 µg/mL)	0.30 µM (≈ 0.0411 µg/mL)	0.04 µM (≈ 0.00549 µg/mL)	0.04 µM (≈ 0.00549 µg/mL)	0.04 µM (≈ 0.00549 µg/mL)							
Cc1nn2c(=O)cc(-c3ccc(F)c(F)c3)[nH]c2c1-c1ccccc1 [Compound P19, 5-(3,4-Difluorophenyl)-2-methyl-3-phenylpyrazolo[1,5-a]pyrimidin-7(4H)-one]	2.3 µM (≈ 0.776 µg/mL)	2.3 µM (≈ 0.776 µg/mL)	1.56 µM (≈ 0.526 µg/mL)	3.13 µM (≈ 1.06 µg/mL)	12.5 µM (≈ 4.22 µg/mL)	1.56 µM (≈ 0.526 µg/mL)	1.56 µM (≈ 0.526 µg/mL)	3	3	2	3 × 10^–8 and 4 × 10^–9	16	2	2
O=c1cc(CC2CCCCC2)[nH]c2c(-c3ccc(Cl)cc3)cnn12 [Compound 2, 3-(4-Chlorophenyl)-5-(cyclohexylmethyl)pyrazolo[1,5-a]pyrimidin-7(4H)-one, reference compound]	1.2 µM (≈ 0.41 µg/mL)	1.2 µM (≈ 0.41 µg/mL)	1.2 µM (≈ 0.41 µg/mL)	25.0 µM (≈ 8.55 µg/mL)	0.39 µM (≈ 0.133 µg/mL)	0.39 µM (≈ 0.133 µg/mL)	1.2 µM (≈ 0.41 µg/mL)	3	3	3		1	1	3
Cc1nn2c(=O)cc(-c3ccc(Cl)c(Cl)c3)[nH]c2c1-c1ccc(F)cc1 [Compound P24, 5-(3,4-Dichlorophenyl)-3-(4-fluorophenyl)-2-methylpyrazolo[1,5-a]pyrimidin-7(4H)-one]	6.26 µM (≈ 2.43 µg/mL)	7.82 µM (≈ 3.04 µg/mL)	3.90 µM (≈ 1.51 µg/mL)		18.8 µM (≈ 7.3 µg/mL)	6.25 µM (≈ 2.43 µg/mL)	3.12 µM (≈ 1.21 µg/mL)	4	5	2.5		12	4	2
Cc1nn2c(=O)cc(-c3ccccc3)[nH]c2c1-c1ccccc1 [Compound 1, 2-Methyl-3,5-diphenylpyrazolo[1,5-a]pyrimidin-7(4H)-one]	3.13 µM (≈ 0.943 µg/mL)	2.3 µM (≈ 0.693 µg/mL)	2.3 µM (≈ 0.693 µg/mL)	12.5 µM (≈ 3.77 µg/mL)	12.5 µM (≈ 3.77 µg/mL)	1.56 µM (≈ 0.47 µg/mL)	1.56 µM (≈ 0.47 µg/mL)	2.6	2	2		10	1.3	1.3
COc1ccc(-c2cc(=O)n3nc(C)c(-c4ccc(F)cc4)c3[nH]2)cc1 [Compound 4, 3-(4-Fluorophenyl)-5-(4-methoxyphenyl)-2-methylpyrazolo[1,5-a]pyrimidin-7(4H)-one, reference compound]	4.7 µM (≈ 1.64 µg/mL)	2.3 µM (≈ 0.804 µg/mL)	2.3 µM (≈ 0.804 µg/mL)	9.40 µM (≈ 3.28 µg/mL)	3.13 µM (≈ 1.09 µg/mL)	1.56 µM (≈ 0.545 µg/mL)	2.3 µM (≈ 0.804 µg/mL)	3	1.5	1.5		2	1	1.5
